What was measured:
Cyp24 promoter = test: ChIP of VDR/RXR at Cyp24 promoter in ST2 cells; assay type: cell-based, mouse; conditions: 10^-7 M, 6 hours
Procedure: (§1) FIG. 3. ChIP/chip analysis of the RANKL gene locus. A) ChIP: ST2 cells were treated with either vehicle or 1,25(OH)2D3 (10^−7 M) and after 6 hours subjected to ChIP using antibodies to VDR, RXR and IgG. Precipitated DNA was analyzed for the presence of either the Cyp24 or the OPN promoter. B) Arrangement of the mouse RANKL gene locus and position of flanking genes. RANKL gene is transcribed on the reverse strand (right to left). C) DNA chip: Precipitated DNA was linearly amplified and then subjected to chip analysis using tiled oligonucleotide arrays containing 50-mers spanning the RANKL gene locus as described in the text. Hybridization data derived from the arrays are indicated in log2 scale across the locus with nucleotide positions on chromosome 14 indicated on the X axis. The first set of two arrays provide linear data comparing IgG (±1,25(OH)2D3) and VDR (±1,25(OH)2D3) over the RANKL upstream regions. The second set of three arrays provides an expanded view of hybridization data comparing VDR (±1,25(OH)2D3), VDR (+1,25(OH)2D3 vs input DNA) and RXR (+1,25(OH)2D3 vs input DNA). VDR/RXR binding regions D1-D5 are tracked by the shading.
(§2) As a first step, the inventors treated ST2 cells with either vehicle or 1,25(OH)2D3 for 6 hours, fixed the cells with formalin, and then subjected the cell lysates to ChIP analysis using antibodies to VDR, RXR, and an IgG control. […]

RANKL = test: RT-PCR of RANKL transcripts in treated ST2 cells; assay type: cell-based, mouse; conditions: treated up to 24 hours, agent alone, vs beta-actin controls
Procedure: FIG. 2. Induction of RANKL in ST2 cells by hormones and cytokines. ST2 cells were treated with the agents indicated for periods up to 24 hours. Total RNA was isolated and subjected to RT-PCR using a primer set to mouse RANKL and beta-actin. Positive vitamin D target control genes include Cyp24 and osteopontin (OPN).
The inventors first established a model in which RANKL is both induced in response to 1,25(OH)2D3, PTH (forskolin) and oncostatin M (OSM), and is capable of supporting osteoclast formation when co-cultured with bone marrow monocyte- or spleen cell-derived osteoclast precursors. While a number of cell types express RANKL and induce osteoclastogenesis, the historical literature strongly supports mouse ST2 cells in this capacity, prompting the inventors to focus on this stromal/preosteoblastic line for initial studies. […] Each of these components is known to both induce RANKL expression and promote osteoclast formation as well. […] Indeed, GC effects are widely observed. […] The ability of GCs to enhance osteoclast formation in coculture assays in the presence of 1,25(OH)2D3, however, is likely due also to its coordinate ability to suppress OPG.

[1] = test system: human D5 region (TK-hRLD5); test: TK-hRLD5 luciferase reporter in MG-63 cells; assay type: cell-based; conditions: 24 hours
Procedure: FIG. 14. […] Cells were treated with the indicated inducers for the periods identified and isolated RNA subjected to PCR analysis for Cyp24, RANKL and b-actin. […] Two different primer sets to the human D5 region were used to assess VDR binding. […] Luciferase activity was analysed 24 hours later. […] Data are the average of triplicate determinations, SEM.
Approximately 1000 bp of the human RANKL gene comprising D5 was cloned and inserted into a TK-luciferase expression vector (TK-hRLD5). […] The D5 RL region and an additional region immediately upstream in both the mouse and human genes contain elements that mediate the actions of parathyroid hormone, a variety of prostaglandins, cytokines such as oncostatin M and IL-6, as well as IL-1 and others.

OPN promoter = test: ChIP of VDR/RXR at OPN promoter in ST2 cells; assay type: cell-based, mouse; conditions: 10^-7 M, 6 hours
Procedure: as §1, §2

[2] = test system: D5 fragment in COS7 cells; test: pRL-D5/TK-luc reporter in COS7 cells with VDR expression vector; assay type: cell-based, mouse
Procedure: FIG. 6. Transcriptional activity of the D5 regions of the RANKL gene in the context of the TK promoter. Sequence surrounding the D5 region (1072 bp) was cloned into the pTK-luciferase vector and termed pTK-RL(D5). […] Cells were harvested after 24 hours and luciferase activity assessed. B) ST2 cells were transfected as in A above but without the VDR expression vector and evaluated as in A. C) COS-7 cells were transfected and evaluated as in A above. Luciferase was normalized using beta-gal activity. Data represent the mean of triplicate determinations (SEM). The pTK-luc control vector was unresponsive to any of the inducers (see FIG. 9). *, p<0.05 vs no treatment control.
The activity of an enhancer must be evaluated in the context of its local environment, preferentially in the context of both other enhancers and its native promoter. In the case of the RANKL gene, however, this is clearly not possible due to the numbers and the distant locations of the potential regulatory regions. […] To ensure that the viral TK promoter background was not contributing to our evaluation, the inventors cloned the mouse RANKL promoter (−100 to +65) into pGL3, inserted RL D5 and evaluated its activity in ST2 cells as well.

[3] = test system: mouse D5 region (TK-mRLD5); test: TK-mRLD5 luciferase reporter in MG-63 cells; assay type: cell-based; conditions: 24 hours
minimal RANKL promoter = test: Mouse RANKL minimal promoter (-100 to +65) in pGL3, ST2 cells; assay type: cell-based; conditions: pGL3, without D5 insert
Source text: FIG. 9. The mouse RANKL D5 region is active in the context of the mouse RANKL gene minimal promoter. Mouse RL D5 was inserted upstream of a mouse RANKL gene promoter fragment (−100 to +65) in pGL3 and its inducible activity assessed in ST2 cells. […] Data are the average of triplicate determinations, SEM.
The activity of an enhancer must be evaluated in the context of its local environment, preferentially in the context of both other enhancers and its native promoter. In the case of the RANKL gene, however, this is clearly not possible due to the numbers and the distant locations of the potential regulatory regions. To tackle this problem, the inventors isolated approximately 800 to 1100 bp fragments of each region (D1 to D5) as identified through the ChIP/Chip analysis, cloned each into a luciferase expression vector under the control of a viral thymidine kinase (TK) minimal promoter, and explored the 1,25(OH)2D3- and GC-inducible activity of each following transfection into ST2 cells. […] Nevertheless, positive results provide added support for the potential regulatory capabilities of an individual DNA fragment even when examined in isolation. […] To ensure that the viral TK promoter background was not contributing to our evaluation, the inventors cloned the mouse RANKL promoter (−100 to +65) into pGL3, inserted RL D5 and evaluated its activity in ST2 cells as well.

C=C1/C(=C\C=C2/CCC[C@]3(C)[C@@H]([C@H](C)CCCC(C)(C)O)CC[C@@H]23)C[C@@H](O)C[C@@H]1O [1,25(OH)2D3]
abundance of Cyp24 promoter DNA precipitated with VDR and RXR antibodies (Cyp24 promoter): clearly increased the abundance of DNA
RANKL transcripts (RANKL): substantial time-dependent increase
activity of human D5 region [1]: induces
abundance of OPN promoter DNA precipitated with VDR and RXR antibodies (OPN promoter): clearly increased the abundance of DNA
stimulation via the D5 fragment in COS7 cells [2]: failed to stimulate
activity of mouse D5 region [3]: induces
response of minimal RANKL promoter (minimal RANKL promoter): unresponsive

From patent US20070117182A1, “Nucleic acids conferring transcriptional responsiveness on the RANKL gene promoter and uses thereof” (Wisconsin Alumni Research Foundation, priority 2005, published 2007)
